Patent US6800622B1, “Pyrene-linked pyrrolo[2,1-c][1,4]benzodiazepine hybrids useful as anti-cancer agents” (Council of Scientific and Industrial Research, priority 2003, dated 2004)

What was measured:
[1] = system: NCI-H460 (Lung); test: In vitro one dose primary anticancer assay (NCI); type: cell-based, human; details: one dose at 10^−4 molar concentration
Experimental: (§1) In vitro biological activity studies were carried out at National Cancer Institute (USA).
(§2) Compounds Ve and Vg were evaluated the primary anti-cancer activity (Table 1) and further Ve have been evaluated in vitro against sixty human tumour cells derived from nine cancer types (leukemia, non-small-cell lung, colon, CNS, melanoma, ovarian, prostate, and breast cancer). For each compound, dose response curves for each cell line were measured at a minimum of five concentrations at 10 fold dilutions. A protocol of 48 h continuous drug exposure was used and a sulforhodamine B (SRB) protein assay was used to estimate cell viability or growth. The concentration causing 50% cell growth inhibition (GI50), total cell growth inhibition (TGI 0% growth) and 50% cell death (LC50, −50% growth) compared with the control was calculated.

[2] = system: SF-268 (CNS); test: In vitro one dose primary anticancer assay (NCI); type: cell-based, human; details: one dose at 10^−4 molar concentration
Experimental: as §1, §2

[3] = system: MCF7 (Breast); test: In vitro one dose primary anticancer assay (NCI); type: cell-based, human; details: one dose at 10^−4 molar concentration
Experimental: as §1, §2

[4] = system: sixty human tumour cells; test: NCI in vitro cytotoxicity, SRB assay, mean graph midpoints; type: cell-based; details: 48 h continuous drug exposure, human tumour cell lines
Experimental: as §1, §2

COc1cc2c(cc1OCCCC(=O)Nc1ccc3ccc4cccc5ccc1c3c45)N=C[C@@H]1CCCN1C2=O [Ve, 7-Methoxy-8-[N-(1″-pyrenyl)-propane-3′-carboxamide]-oxy-(11aS)-1,2,3,11a tetra-hydro-5H-pyrrolo[2,1-c][1,4]benzodiazepin-5-one]
Growth percentages (Lung) NCI-H460 [1]: 11% | Growth percentages (CNS) SF-268 [2]: 70% | Growth percentages (Breast) MCF7 [3]: 31% | Log10 TGI mean graph midpoint (MG_MID) [4]: −6.89

COc1cc2c(cc1OCCCCC(=O)Nc1ccc3ccc4cccc5ccc1c3c45)N=C[C@@H]1CCCN1C2=O [Vg, 7-Methoxy-8-[N-(1″-pyrenyl)-butane-4′-carboxamide]-oxy-(11aS)-1,2,3,11a-tetra-hydro-5H-pyrrolo[2,1-c][1,4]benzodiazepin-5-one]
Growth percentages (Lung) NCI-H460 [1]: 106% | Growth percentages (CNS) SF-268 [2]: 131% | Growth percentages (Breast) MCF7 [3]: 72%
